Results published in publication PMC10779950, “Binding Free Energy Calculation Based on the Fragment Molecular Orbital Method and Its Application in Designing Novel SHP-2 Allosteric Inhibitors” (International Journal of Molecular Sciences, 2024).
Where two headings read alike, the source gives them in different places. Each block holds one molecule with its values, some of them ahead of it.

Legend:
Eg5 = settings: experimental binding free energy, ref Schrödinger FEP+ benchmark; cited from earlier work
c-Met [1] = system: c-Met; design: method as in earlier work; settings: FEP+ predicted ΔG from the benchmark; cited from earlier work
THR-β = test: Experimental THR-β activity of agonists taken from Hu et al.; format: biochemical; settings: Table S4, converted from the experimental value
Text: In the initial phase of our investigation, we conducted a retrospective evaluation of FMOScore’s performance concerning thyroid hormone receptor β (THR-β) agonists, using a set of 18 compounds taken from the work of Hu et al. [65]

SHP2^WT (1–593) = target: T1, SHP2^WT (1–593) (Homo sapiens, UniProt Q06124); test: SHP-2 prompt fluorescence phosphatase assay (DiFMUP), SHP2^WT; format: biochemical; design: ΔG experiment: unit not given here; settings: for pIC50: from experimental IC50; for ΔG experiment: experimental binding free energy converted from IC50
T1 construct: made in house; host or cells: E. coli BL21 Star (DE3), pET30 vector
T1 sequence (Q06124 1-593): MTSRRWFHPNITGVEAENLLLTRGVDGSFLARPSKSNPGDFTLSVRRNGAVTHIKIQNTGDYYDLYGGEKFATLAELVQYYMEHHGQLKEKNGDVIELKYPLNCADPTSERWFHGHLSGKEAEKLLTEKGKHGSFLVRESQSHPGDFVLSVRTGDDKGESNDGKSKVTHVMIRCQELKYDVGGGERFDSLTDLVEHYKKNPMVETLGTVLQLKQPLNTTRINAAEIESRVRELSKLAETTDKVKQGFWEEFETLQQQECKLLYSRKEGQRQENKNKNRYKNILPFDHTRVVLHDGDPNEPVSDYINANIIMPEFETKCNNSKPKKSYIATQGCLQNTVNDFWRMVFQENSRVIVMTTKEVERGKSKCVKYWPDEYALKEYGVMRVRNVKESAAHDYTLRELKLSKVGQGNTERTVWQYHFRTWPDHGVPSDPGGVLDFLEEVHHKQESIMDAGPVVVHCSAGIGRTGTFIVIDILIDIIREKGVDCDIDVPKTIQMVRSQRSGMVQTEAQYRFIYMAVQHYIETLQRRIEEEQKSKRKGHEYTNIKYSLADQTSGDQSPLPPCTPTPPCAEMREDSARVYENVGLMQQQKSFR
Method: Briefly, the constructs were transformed into BL21 Star^TM (DE3) cells and cultured at 37 °C for 3~4 h. Subsequently, the cells with high expression of SHP2 protein were harvested after being induced by IPTG and grown overnight at 18 °C. Cell pellets were resuspended in lysis buffer (25 mM imidazole, 50 mM Tris−HCl, 500 mM NaCl, 2.5 mM MgCl2, 1 mM tris(2-carboxyethyl)phosphine (TCEP), 1 μg/mL DNase1, and complete EDTA-free protease inhibitor) and lysed using Low Temperature Ultrahigh Pressure Continuous Flow Cell Disrupter (JNBIO), followed by ultracentrifugation. The supernatant was collected. Then, the SHP2 was purified from the collected supernatant by using HisTrap HP chelation column, TEV protease, and HiTrap Q FastFlow column.
Then, the mixture was then incubated at 25 °C for 60 min. To initiate the reaction, the surrogate substrate DiFMUP (Invitrogen, cat. no. D6567, Shuzhou, China, 200 μM) was added and incubated at 25 °C for another 30 min. […] Fluorescence signal was detected using a microplate reader (Bio-Tek, Shanghai, China, Synergy2) at Ex/Em = 340/450 nm. Using control-based normalization, normalized IC50 regression curves were fitted to inhibitor dose response curves.

c-Met [2] = system: c-Met; design: method as in earlier work; settings: Schrödinger FEP+ benchmark; cited from earlier work
SYK [3] = settings: experimental binding free energy, ref Schrödinger FEP+ benchmark; cited from earlier work
SYK [4] = system: SYK; design: method as in Schrödinger FEP+ benchmark; settings: FEP+ predicted binding free energy, ref Schrödinger FEP+ benchmark; cited from earlier work
[5] = SHP-2_case sheet, designed SHP-2 inhibitors, read-out: IC50uM
[6] = SHP-2_case sheet, same IC50 restated in another unit, read-out: IC50nM

Compound: CC(C)c1ccc2c(c1)[C@H]1O[C@@H](CNS(=O)(=O)CCCN(C)C)CC[C@H]1[C@H](c1ccccc1)N2 [CHEMBL1084143]
Exp. ΔG (Eg5): -11.87 kcal/mol

IC50 (SHP2^WT (1–593); SHP2^WT, DiFMUP substrate, averages of three independent experiments, read-out: SHP-2 IC50): 15.6 ± 1.49 µM
ΔGexp (SHP2^WT (1–593); converted from IC50 with ΔGexp ≈ kBTlog IC50): -6.553 kcal/mol
fold reduced inhibition on morphing the piperazine ring (relative to compound 1) (SHP2^WT (1–593); ratio of IC50): 10 fold
Compound: Nc1cc(NCC2CCCNC2)cnc1-c1cccc(Cl)c1Cl (centres unmarked) [Compound 2, 2-(2,3-dichlorophenyl)-N5-(piperidin-3-ylmethyl) pyridine-3,5-diamine]
FEP (c-Met [1]): -11.93 kcal/mol
ΔGexp (THR-β): -6.110 kcal/mol
Exp. ΔG (c-Met [2]): -11.25 kcal/mol
Exp. ΔG (SYK [3]): -11.01 kcal/mol
FEP (SYK [4]): -10.49 kcal/mol

Compound: OCCNC[C@H]1CC[C@@H]2[C@H](O1)c1cc(Cl)cc(F)c1N[C@H]2c1ccccc1 [CHEMBL1096002]
Exp. ΔG (Eg5): -11.13 kcal/mol

Compound: CN(C)CCNC(=O)NC[C@H]1CC[C@@H]2[C@H](O1)c1cc(C(F)(F)F)ccc1N[C@H]2c1ccccc1 [CHEMBL1077204]
Exp. ΔG (Eg5): -11.05 kcal/mol

Compound: CN(C[C@H]1CC[C@@H]2[C@H](O1)c1cc(C(F)(F)F)ccc1N[C@H]2c1ccccc1)S(=O)(=O)CCCN [CHEMBL1084678]
Exp. ΔG (Eg5): -11.13 kcal/mol

IC50 (SHP2^WT (1–593); [5]): 15.1 µM
pIC50 (SHP2^WT (1–593); SHP-2_case sheet): 4.821
IC50 (SHP2^WT (1–593); [6]): 15.1 µM
ΔG experiment (SHP2^WT (1–593)): -6.573
Compound: CC1(N)CCN(c2cnc(-c3cccc(F)c3Cl)c(N)c2)CC1 [A-S5]

IC50 (SHP2^WT (1–593); [5]): 1.49 µM
pIC50 (SHP2^WT (1–593); SHP-2_case sheet): 5.826
IC50 (SHP2^WT (1–593); [6]): 1.49 µM
ΔG experiment (SHP2^WT (1–593)): -7.943
Compound: CC1(N)CCN(c2cnc(-c3cccc(Cl)c3Cl)c(N)c2)CC1 [A-S1]

IC50 (SHP2^WT (1–593); [5]): 10.7 µM
pIC50 (SHP2^WT (1–593); SHP-2_case sheet): 4.973
IC50 (SHP2^WT (1–593); [6]): 10.7 µM
ΔG experiment (SHP2^WT (1–593)): -6.78
Compound: CC1(N)CCN(c2cnc(-c3ccnc(Cl)c3Cl)c(N)c2)CC1 [A-S6]

IC50 (SHP2^WT (1–593); [5]): 15.6 µM
pIC50 (SHP2^WT (1–593); SHP-2_case sheet): 4.8066
IC50 (SHP2^WT (1–593); [6]): 15.6 µM
ΔG experiment (SHP2^WT (1–593)): -6.554
Compound: Nc1cc(NCC2CCCNC2)cnc1-c1cccc(Cl)c1Cl (centres unmarked) [A-S2]

Compound: FC(F)(F)c1ccc2c(c1)[C@H]1O[C@@H](Cn3cncn3)CC[C@H]1[C@H](c1ccccc1)N2 [CHEMBL1093088]
Exp. ΔG (Eg5): -11.22 kcal/mol

Compound: CCN(CCO)C[C@H]1CC[C@@H]2[C@H](O1)c1cc(C(C)(C)C)ccc1N[C@H]2c1ccccc1 [CHEMBL1084935]
Exp. ΔG (Eg5): -10.53 kcal/mol

Compound: CNC[C@H]1CC[C@@H]2[C@H](O1)c1cc(C(C)(C)C)ccc1N[C@H]2c1cccs1 [CHEMBL1077227]
Exp. ΔG (Eg5): -11.32 kcal/mol

Compound: CN(C)CCS(=O)(=O)NC[C@H]1CC[C@@H]2[C@H](O1)c1cc(Cl)cc(F)c1N[C@H]2c1ccccc1 [CHEMBL1096003]
Exp. ΔG (Eg5): -11.87 kcal/mol

Compound: CC(C)(C)c1ccc2c(c1)[C@H]1OCCC[C@H]1[C@H](c1ccc(O)c(F)c1)N2 [CHEMBL1078774]
Exp. ΔG (Eg5): -10.6 kcal/mol

Compound: CNC[C@H]1CC[C@@H]2[C@H](O1)c1cc(C(C)(C)C)ccc1N[C@H]2c1ccccc1 [CHEMBL1086410]
Exp. ΔG (Eg5): -11.46 kcal/mol

Compound: CNC[C@H]1CC[C@@H]2[C@H](O1)c1cc(C(F)(F)F)ccc1N[C@H]2c1ccc(F)cc1 [CHEMBL1086409]
Exp. ΔG (Eg5): -9.87 kcal/mol

Compound: NCCN(C[C@H]1CC[C@@H]2[C@H](O1)c1cc(C(F)(F)F)ccc1N[C@H]2c1ccccc1)c1ccccc1 [CHEMBL1093087]
Exp. ΔG (Eg5): -10.53 kcal/mol

IC50 (SHP2^WT (1–593); [5]): 5.17 µM
pIC50 (SHP2^WT (1–593); SHP-2_case sheet): 5.286
IC50 (SHP2^WT (1–593); [6]): 5.17 µM
ΔG experiment (SHP2^WT (1–593)): -7.208
Compound: Nc1cc(NC2CCNC2)cnc1-c1cccc(Cl)c1Cl (centres unmarked) [A-S3]

Compound: CC(C)(C)c1ccc2c(c1)[C@H]1OCCC[C@H]1[C@H](c1cccs1)N2 [CHEMBL1078998]
Exp. ΔG (Eg5): -10.37 kcal/mol
